19 molecules from PubChem BioAssay AID318 (DTP/NCI, 2004) can be followed below.

“And” between values parts separate entries of the source, which are not always exact repeats. Equal values may be shown once. Inconclusive results and toxic doses are left out.

The test deals with BDF1 mice, P815 leukemia ip, survival T/C. Kind of test: NCI In Vivo Anticancer Drug Screen. Data for tumor model P815 Mast Cell Leukemia (Ascitic) (intraperitoneal) in B6D2F1 (BDF1) mice. As to conditions: higher = longer survival. On the procedure:
The antitumor activity of compounds was measured in mice bearing transplantable tumors. Survival or tumor size were measured and the results are expressed as the measurement made in the treated group (T) divided by the measurement made in the vehicle treated control group (C). The tumor model used in this assay is P815 Mast Cell Leukemia (Ascitic) (intraperitoneal) in B6D2F1 (BDF1) mice

Where [1] appears, read: endpoint: survival time, mean or median, dose: 5.0 mg/kg/injection, schedule: Q01DX010 (ip), vehicle: saline.
[2] abbreviates: endpoint: survival time, mean or median, dose: 5.0 mg/kg/injection, schedule: Q01DX015 (ip), vehicle: carboxymethylcellulose (CMC).
The mark [3] stands for this setting: endpoint: survival time, mean or median, dose: 10.0 mg/kg/injection, schedule: Q01DX010 (ip), vehicle: saline.
Setting [4] is: endpoint: survival time, mean or median, dose: 10.0 mg/kg/injection, schedule: Q01DX015 (ip), vehicle: carboxymethylcellulose (CMC).
The mark [5] stands for this setting: endpoint: survival time, mean or median, dose: 20.0 mg/kg/injection, schedule: Q01DX010 (ip), vehicle: saline.
Setting [6] is: endpoint: survival time, mean or median, dose: 20.0 mg/kg/injection, schedule: Q01DX015 (ip), vehicle: carboxymethylcellulose (CMC).
[7] abbreviates: endpoint: survival time, mean or median, dose: 40.0 mg/kg/injection, schedule: Q01DX010 (ip), vehicle: saline.
Setting [8] is: endpoint: survival time, mean or median, dose: 25.0 mg/kg/injection, schedule: Q01DX010 (ip), vehicle: saline.
Where [9] appears, read: endpoint: survival time, mean or median, dose: 50.0 mg/kg/injection, schedule: Q01DX010 (ip), vehicle: saline.
Setting [10] is: endpoint: survival time, mean or median, dose: 1.5 mg/kg/injection, schedule: Q01DX010 (ip), vehicle: saline.
The mark [11] stands for this setting: endpoint: survival time, mean or median, dose: 3.0 mg/kg/injection, schedule: Q01DX010 (ip), vehicle: saline.
The mark [12] stands for this setting: endpoint: survival time, mean or median, dose: 6.0 mg/kg/injection, schedule: Q01DX010 (ip), vehicle: saline.
[13] abbreviates: endpoint: survival time, mean or median, dose: 12.0 mg/kg/injection, schedule: Q01DX010 (ip), vehicle: saline.
Setting [14] is: endpoint: survival time, mean or median, dose: 167.0 mg/kg/injection, schedule: Q01DX010 (ip), vehicle: saline.
Setting [15] is: endpoint: survival time, mean or median, dose: 250.0 mg/kg/injection, schedule: Q01DX010 (ip), vehicle: saline.

Consider `O=c1[nH]cc(F)c(=O)[nH]1`, for which the T/C runs as follows: (endpoint: median survival time, dose: 80.0 mg/kg/injection, schedule: Q04DX003 (ip), vehicle: saline) 118 % of control; under setting [1], 150 % of control; under setting [2], 162 % of control; under setting [3], 194 % of control and 150 % of control; under setting [4], 174 % of control; (endpoint: survival time, mean or median, dose: 15.0 mg/kg/injection, schedule: Q01DX015 (ip), vehicle: carboxymethylcellulose (CMC)) 199 % of control and 174 % of control. Also, the T/C reads like this: under setting [5], 195 % of control and 216 % of control; under setting [6], 189 % of control; under setting [7], 95 % of control and 111 % of control.

Regarding `CS(=O)(=O)OCCC(=O)N1CCN(C(=O)CCOS(C)(=O)=O)CC1`, the T/C by setting is: (endpoint: survival time, mean or median, dose: 12.5 mg/kg/injection, schedule: Q01DX010 (ip), vehicle: saline) 105 % of control; under setting [8], 222 % of control; under setting [9], 211 % of control and 285 % of control; (endpoint: survival time, mean or median, dose: 100.0 mg/kg/injection, schedule: Q01DX010 (ip), vehicle: saline) 183 % of control and 160 % of control.

For `O=C(O)c1[nH]c(=O)[nH]c(=O)c1F`, the T/C (endpoint: survival time, mean or median, dose: 13.0 mg/kg/injection, schedule: Q01DX015 (ip), vehicle: carboxymethylcellulose (CMC)) is 86 % of control.

As to `C[C@@H]1C[C@@H]([C@H](O)CC2CC(=O)NC(=O)C2)C(=O)[C@@H](C)C1`, the T/C reads like this: under setting [1], 109 % of control and 118 % of control; under setting [3], 104 % of control and 109 % of control; under setting [5], 109 % of control and 118 % of control; under setting [7], 118 % of control.

As to `CCOC(=O)c1c[nH]c2ccc(N(CCCl)CCCl)cc12`, the T/C under setting [1] was 100 % of control; the T/C under setting [3] was 100 % of control; the T/C under setting [5] was 100 % of control; the T/C under setting [7] was 105 % of control; the T/C (endpoint: survival time, mean or median, dose: 80.0 mg/kg/injection, schedule: Q01DX010 (ip), vehicle: saline) is 112 % of control.

Take `N#[N+]c1cnc([O-])[nH]c1=O`: the T/C is 150 % of control (endpoint: survival time, mean or median, dose: 1.25 mg/kg/injection, schedule: Q01DX010 (ip), vehicle: saline); 205 % of control (endpoint: survival time, mean or median, dose: 2.5 mg/kg/injection, schedule: Q01DX010 (ip), vehicle: saline); 215 % of control and 150 % of control under setting [1]; 205 % of control and 161 % of control under setting [3].

With `CCCCOP(=S)(N1CC1)N1CC1`, the T/C by setting is: (endpoint: survival time, mean or median, dose: 4.0 mg/kg/injection, schedule: Q01DX010 (ip), vehicle: saline) 120 % of control and 122 % of control; (endpoint: survival time, mean or median, dose: 16.0 mg/kg/injection, schedule: Q01DX010 (ip), vehicle: saline) 90 % of control and 122 % of control; (endpoint: survival time, mean or median, dose: 32.0 mg/kg/injection, schedule: Q01DX010 (ip), vehicle: saline) 90 % of control.

Turning to `COc1ccc2c(c1OC)C(=O)O[C@@H]2[C@H]1c2c(cc3c(c2OC)OCO3)CCN1C`, the T/C is 101 % of control (endpoint: survival time, mean or median, dose: 62.5 mg/kg/injection, schedule: Q01DX015 (ip), vehicle: carboxymethylcellulose (CMC)); 95 % of control (endpoint: survival time, mean or median, dose: 125.0 mg/kg/injection, schedule: Q01DX015 (ip), vehicle: carboxymethylcellulose (CMC)); 96 % of control (endpoint: survival time, mean or median, dose: 250.0 mg/kg/injection, schedule: Q01DX015 (ip), vehicle: carboxymethylcellulose (CMC)); 93 % of control (endpoint: survival time, mean or median, dose: 500.0 mg/kg/injection, schedule: Q01DX015 (ip), vehicle: carboxymethylcellulose (CMC)).

In the case of `C[C@H](N)C(=O)N[C@@H]1[C@H]2C(=C(O)C[C@@H](O)[C@@H]2O)C(=O)O[C@@H]1C`, the T/C is 122 % of control (endpoint: survival time, mean or median, dose: 150.0 mg/kg/injection, schedule: Q01DX010 (ip), vehicle: saline) and 183 % of control (endpoint: survival time, mean or median, dose: 1200.0 mg/kg/injection, schedule: Q01DX010 (ip), vehicle: saline).

In the case of `CN(Cc1cnc2nc(N)nc(N)c2n1)c1c(Cl)cc(C(=O)NC(CCC(=O)O)C(=O)O)cc1Cl` (configuration not stated), the T/C reads like this: under setting [2], 150 % of control; under setting [4], 164 % of control; (endpoint: survival time, mean or median, dose: 13.2 mg/kg/injection, schedule: Q01DX015 (ip), vehicle: carboxymethylcellulose (CMC)) 166 % of control; under setting [6], 164 % of control; (endpoint: survival time, mean or median, dose: 25.0 mg/kg/injection, schedule: Q01DX015 (ip), vehicle: carboxymethylcellulose (CMC)) 190 % of control; (endpoint: survival time, mean or median, dose: 30.0 mg/kg/injection, schedule: Q01DX015 (ip), vehicle: carboxymethylcellulose (CMC)) 181 % of control. In addition, the T/C (endpoint: survival time, mean or median, dose: 45.0 mg/kg/injection, schedule: Q01DX015 (ip), vehicle: carboxymethylcellulose (CMC)) was 179 % of control; the T/C (endpoint: survival time, mean or median, dose: 67.5 mg/kg/injection, schedule: Q01DX015 (ip), vehicle: carboxymethylcellulose (CMC)) was 164 % of control; the T/C (endpoint: survival time, mean or median, dose: 100.0 mg/kg/injection, schedule: Q01DX015 (ip), vehicle: carboxymethylcellulose (CMC)) is 121 % of control.

Turning to `Oc1ccccc1C(Nc1nc2ccccc2s1)c1ccc2cccnc2c1O` (configuration not stated), the T/C (endpoint: survival time, mean or median, dose: 62.5 mg/kg/injection, schedule: Q01DX015 (ip), vehicle: other) is 90 % of control; the T/C (endpoint: survival time, mean or median, dose: 125.0 mg/kg/injection, schedule: Q01DX015 (ip), vehicle: other) was 120 % of control; the T/C (endpoint: survival time, mean or median, dose: 250.0 mg/kg/injection, schedule: Q01DX015 (ip), vehicle: other) is 98 % of control.

Turning to `CN(C)c1ccc(/C=C\c2ccnc3ccccc23)cc1`, the T/C is 90 % of control under setting [10], 90 % of control under setting [11], 90 % of control under setting [12] and 90 % of control under setting [13].

With `O=C(Nc1ccc(C2=NCCN2)cc1)c1cc(C(=O)Nc2ccc(C3=NCCN3)cc2)cc([N+](=O)[O-])c1`, the T/C runs as follows: under setting [14], 91 % of control; under setting [15], 95 % of control; (endpoint: survival time, mean or median, dose: 375.0 mg/kg/injection, schedule: Q01DX010 (ip), vehicle: saline) 91 % of control.

As for `N#CCSc1ncnc2nc[nH]c12`, the T/C by setting is: (endpoint: survival time, mean or median, dose: 7.5 mg/kg/injection, schedule: Q01DX010 (ip), vehicle: saline) 100 % of control; (endpoint: survival time, mean or median, dose: 15.0 mg/kg/injection, schedule: Q01DX010 (ip), vehicle: saline) 100 % of control and 111 % of control; (endpoint: survival time, mean or median, dose: 30.0 mg/kg/injection, schedule: Q01DX010 (ip), vehicle: saline) 100 % of control and 111 % of control; (endpoint: survival time, mean or median, dose: 60.0 mg/kg/injection, schedule: Q01DX010 (ip), vehicle: saline) 94 % of control and 122 % of control.

On to `CN(C)c1ccc(/C=C/c2ccnc3ccccc23)cc1`, for which the T/C was 100 % of control under setting [1]; 88 % of control and 94 % of control under setting [3]; 88 % of control and 100 % of control under setting [5]; 100 % of control under setting [7].

`CCN(CC)CCNc1ccc(C)c2sc3ccccc3c(=O)c12`: the T/C is, setting by setting: under setting [8], 107 % of control and 113 % of control; under setting [9], 118 % of control and 123 % of control.

As to `Nc1ncnc2[nH]ncc12`, the T/C reads like this: under setting [10], 100 % of control; under setting [11], 100 % of control; under setting [12], 100 % of control and 104 % of control; under setting [13], 100 % of control and 109 % of control.

For the molecule `O=C(Nc1ccc(C2=NCCN2)cc1)c1cc(Cl)cc(C(=O)Nc2ccc(C3=NCCN3)cc2)c1`, the T/C is, setting by setting: (endpoint: survival time, mean or median, dose: 140.0 mg/kg/injection, schedule: Q01DX010 (ip), vehicle: saline) 91 % of control; (endpoint: survival time, mean or median, dose: 210.0 mg/kg/injection, schedule: Q01DX010 (ip), vehicle: saline) 95 % of control; (endpoint: survival time, mean or median, dose: 315.0 mg/kg/injection, schedule: Q01DX010 (ip), vehicle: saline) 86 % of control; (endpoint: survival time, mean or median, dose: 473.0 mg/kg/injection, schedule: Q01DX010 (ip), vehicle: saline) 91 % of control.

With `O=C(Nc1ccc(C2=NCCN2)cc1)c1ccc(C(=O)Nc2ccc(C3=NCCN3)cc2)cc1`, the T/C reads like this: (endpoint: survival time, mean or median, dose: 75.0 mg/kg/injection, schedule: Q01DX010 (ip), vehicle: saline) 158 % of control; (endpoint: survival time, mean or median, dose: 112.0 mg/kg/injection, schedule: Q01DX010 (ip), vehicle: saline) 175 % of control; under setting [14], 175 % of control; under setting [15], 108 % of control.
